Active and inactive are the calls of the source.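 Rule for the calls: active = IC50 of 10 µM or lower; inactive = IC50 above 10 µM.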
test system: T. brucei BSF 427 growth, AlamarBlue, 48 h; test: trypanosome proliferation inhibition – absorbance, assay provider, round 3, counter-screen for T. brucei MetRS inhibitor project, dose response (AID 1053204)

Point of comparison: `CCN(CC)C(=O)C(=O)c1cn(CCNc2cc(Oc3ccccc3)cc(C(F)(F)F)c2)c2ccccc12`, IC50 4080 nM. Against it:
- CCN(CC)C(=O)C(=O)c1cn(CC(=O)Nc2cc(Oc3ccc(F)cc3)cc(C(F)(F)F)c2)c2ccccc12 — 2.9-fold lower, 1420 nM
- CCN(CC)C(=O)C(=O)c1cn(CC(=O)Nc2cc(Oc3ccccc3OC)cc(C(F)(F)F)c2)c2ccccc12 — 4.3-fold lower, 952 nM
- CCN(CC)C(=O)C(=O)c1cn(CC(=O)Nc2cc(Oc3ccc(OC)cc3)cc(C(F)(F)F)c2)c2ccccc12 — 4.9-fold lower, 830 nM
- CCN(CC)C(=O)C(=O)c1cn(CC(=O)Nc2cc(Oc3ccccc3F)cc(C(F)(F)F)c2)c2ccccc12 — 2.5-fold lower, 1630 nM
- O=C(Cc1ccc(Nc2nc3ccc(Br)cc3[nH]2)cc1)NCCc1cccs1 — 2.2-fold higher, 8910 nM
- O=C(Cn1cc(C(=O)C(=O)NCc2ccccc2)c2ccccc21)Nc1cc(Oc2ccccc2)cc(C(F)(F)F)c1 — 4.5-fold lower, 916 nM
- CCN(CC)C(=O)C(=O)c1cn(CCNc2cccc(C(F)(F)F)c2)c2ccccc12 — within 1.5-fold, 5500 nM

For `Nc1c(Cl)ncnc1Nc1ccc(C(=O)O)cc1`, the IC50 was > 10000 nM (inactive).
`CCN(CC)C(=O)Cc1cn(CC(=O)Nc2cccc(C(F)(F)F)c2)c2ccccc12` was tested, and the IC50 was > 10000 nM (inactive).
